Assay [1] concerns the target T1, EIF2AK3 (PERK) catalytic domain (amino acids 536-1116) (Homo sapiens, UniProt Q9NZJ5).
T1 construct: EIF2AK3 (PERK) catalytic domain (amino acids 536-1116)
T1 sequence (Q9NZJ5 536-1116): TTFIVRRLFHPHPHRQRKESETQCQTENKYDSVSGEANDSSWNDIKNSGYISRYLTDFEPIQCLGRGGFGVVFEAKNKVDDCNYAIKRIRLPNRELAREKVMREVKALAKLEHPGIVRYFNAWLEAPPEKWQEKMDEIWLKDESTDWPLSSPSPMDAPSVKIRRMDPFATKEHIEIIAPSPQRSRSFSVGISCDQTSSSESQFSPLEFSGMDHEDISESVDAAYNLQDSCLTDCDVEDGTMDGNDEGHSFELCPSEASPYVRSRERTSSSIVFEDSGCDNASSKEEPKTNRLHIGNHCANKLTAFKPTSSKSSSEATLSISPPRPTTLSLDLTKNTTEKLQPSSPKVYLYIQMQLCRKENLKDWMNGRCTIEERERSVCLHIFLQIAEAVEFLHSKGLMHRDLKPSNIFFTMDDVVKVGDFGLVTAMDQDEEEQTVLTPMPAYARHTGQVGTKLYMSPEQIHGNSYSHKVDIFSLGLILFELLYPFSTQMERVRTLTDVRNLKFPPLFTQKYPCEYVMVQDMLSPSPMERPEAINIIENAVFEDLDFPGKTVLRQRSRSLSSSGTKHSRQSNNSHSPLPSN
Briefly: PERK in vitro activity assay (isolated), TR-FRET kinase assay. In kind it is biochemical. The note with it: isolated PERK enzyme, 1.5 μM ATP; read-out: Biochemical IC50. The text has this:
PERK In Vitro Activity Assay (Isolated):
In vitro Inhibition of PERK Enzyme Activity (isolated) Recombinant human EIF2AK2 (PKR) catalytic domain (amino acids 252-551), EIF2AK3 (PERK) catalytic domain (amino acids 536-1116), GFP-eIF2a substrate, and Terbium-labelled phospho-eIF2a antibody is obtained (Invitrogen, Carlsbad, Calif.).
Express and purify HIS-SUMO-GCN2 catalytic domain (amino acids 584-1019) from E. coli. Perform TR-FRET kinase assays in the absence or presence of inhibitors in a reaction buffer consisting of 50 mM HEPES, pH 7.5, 10 mM MgCb, 1.0 mM EGTA, and 0.01% Brij-35, and 100-200 nM GFP-eIF2a substrate. […] Add test compound, initiate the reaction by addition of enzyme, and incubate at room temperature for 45 minutes. Stop the reaction by addition of EDTA to a final concentration of 10 mM, add Terbium-labelled phospho-eIF2a antibody at a final concentration of 2 nM, and incubate for 90 minutes. Monitor the resulting fluorescence in an EnVison® Multilabel reader (PerkinElmer, Waltham, Mass.). Determine TR-FRET ratios and the resulting IC50 values using a 4-parameter nonlinear logistic equation as shown: Y=(A+((B−A)/(1+((C/x)[…])))) where, Y=% specific inhibition, A=Bottom of the curve, B=Top of the curve, C=absolute IC50 (concentration causing 50% inhibition), and D=hill slope.
On the technique in general: TR-FRET usually uses a lanthanide donor and a delayed reading to cut background.

The test system of assay [2] is GFP-eIF2α in HEK293 cells. Description: PERK cellular assay, TR-FRET in HEK293-EGFP-eIF2a cells after tunicamycin-induced ER stress. In kind it is cell-based. Conditions: HEK293-EGFP-eIF2a cells, tunicamycin 2 hours, read-out: Cellular eIF2α IC50. As to the method: Stable cell lines were created in HEK293 cells using lentiviral particles harboring an expression vector for GFP-eIF2α. Cells were selected using puromycin and enriched using fluorescence activated cell sorting against GFP. HEK293-EGFP-eIF2a cells were plated at 5000 cells/well in 384-well assay plates and incubated overnight at 37° C., 5% CO2. Inhibitor compounds were added to the wells by Echo acoustic dispensing and incubated for 30 minutes at 37° C., 5% CO2 prior to induction of ER stress by addition of tunicamycin to […] for 2 hours. Cells were lysed and TR-FRET was measured in an EnVision plate reader (PerkinElmer). FRET ratio data was normalized to signal from lysates treated with DMSO vehicle control and plotted as percent inhibition against 10-point; 3-fold dilution series of inhibitors. IC50 values were calculated using 4-parameter logistical fitting in XLFit.

Like-named read-outs stand apart in the source and are kept apart here.

In general, IC50 refers to the concentration needed to halve the response being measured. As for `Cc1cc(NC(=O)C(C)(O)c2ccccc2)ccc1-c1cn(C)c2ncnc(N)c12` (stereo not drawn) [Example 7, N-(4-(4-amino-7-methyl-7H-pyrrolo[2,3-d]pyrimidin-5-yl)-3-methylphenyl)-2-hydroxy-2-phenylpropanamide], the 50% inhibitory concentration (IC50) in assay [1] fell in the range of 0.051 to 0.1 µM; in assay [2] (Homo sapiens, HEK293, 2 h), 0.101 to 0.25 µM.
For `Cc1cc(NC(=O)[C@H](N)c2ccccc2)ccc1-c1cn(C)c2ncnc(N)c12` [Example 26, (R)-2-amino-N-(4-(4-amino-7-methyl-7H-pyrrolo[2,3-d]pyrimidin-5-yl)-3-methylphenyl)-2-phenylacetamide], in that order: 0.026 to 0.05 µM and 0.501 to 1 µM.
For `CCc1nc(N)c2c(-c3ccc(NC(=O)C(O)c4cccc(F)c4)cc3C)cn(C)c2n1` (stereo not drawn) [Example 67, N-(4-(4-amino-2-ethyl-7-methyl-7H-pyrrolo[2,3-d]pyrimidin-5-yl)-3-methylphenyl)-2-(3-fluorophenyl)-2-hydroxyacetamide], in that order: 0.101 to 0.25 µM and 1 to 2 µM.
For `COc1ccccc1CC(=O)Nc1ccc(-c2cn(C)c3ncnc(N)c23)c(C)c1` [Example 138, N-(4-(4-amino-7-methyl-7H-pyrrolo[2,3-d]pyrimidin-5-yl)-3-methylphenyl)-2-(2-methoxyphenyl)acetamide], the half-inhibitory concentration (IC50) in assay [1] was in the range of 0.001 to 0.025 µM; in assay [2] (Homo sapiens, HEK293, 2 h), 0.101 to 0.25 µM.
With `Cc1nc(N)c2c(-c3ccc(NC(=O)C(O)c4cccc(F)c4)cc3OC(F)(F)F)cn(C)c2n1` (single isomer, unassigned) [Example 21, N-(4-(4-amino-2,7-dimethyl-7H-pyrrolo[2,3-d]pyrimidin-5-yl)-3-(trifluoromethoxy)phenyl)-2-(3-fluorophenyl)-2-hydroxyacetamide], the IC50 in assay [1] lay within 0.001 to 0.025 µM; in assay [2], 0.501 to 1 µM.
For `Cc1nc(N)c2c(-c3ccc(NC(=O)C(O)c4cccc(C(F)(F)F)c4)nc3C)cn(C)c2n1` (stereo not drawn) [Example 130, N-(5-(4-amino-2,7-dimethyl-7H-pyrrolo[2,3-d]pyrimidin-5-yl)-6-methylpyridin-2-yl)-2-hydroxy-2-(3-(trifluoromethyl)phenyl)acetamide], in that order: 0.101 to 0.25 µM and 1 to 2 µM.
For `Cc1c(-c2cn(C)c3ncnc(N)c23)ccc(NC(=O)C(O)c2cccc(F)c2)c1F` (stereo not drawn) [Example 118, N-(4-(4-amino-7-methyl-7H-pyrrolo[2,3-d]pyrimidin-5-yl)-2-fluoro-3-methylphenyl)-2-(3-fluorophenyl)-2-hydroxyacetamide], in that order: 0.026 to 0.05 µM and 0.251 to 0.5 µM.
For `Cc1nc(N)c2c(-c3ccc(NC(=O)C(O)c4cccc(C(F)(F)F)c4)cc3C)cn(C)c2n1` (stereo not drawn) [Example 51, N-(4-(4-amino-2,7-dimethyl-7H-pyrrolo[2,3-d]pyrimidin-5-yl)-3-methylphenyl)-2-hydroxy-2-(3-(trifluoromethyl)phenyl)acetamide], in that order: 0.101 to 0.25 µM and 0.501 to 1 µM.
With `Cc1cc(NC(=O)Cc2ccccc2Cl)ccc1-c1cn(C)c2ncnc(N)c12` [Example 149, N-(4-(4-amino-7-methyl-7H-pyrrolo[2,3-d]pyrimidin-5-yl)-3-methylphenyl)-2-(2-chlorophenyl)acetamide], the IC50 in assay [1] lay in the range of 0.001 to 0.025 µM; in assay [2] (Homo sapiens, HEK293, 2 h), 0.026 to 0.05 µM.
Take `Cc1nc(N)c2c(-c3ccc(NC(=O)C(O)c4cccc(C(F)(F)F)n4)cc3C)cn(C)c2n1` (stereo not drawn) [Example 61, N-(4-(4-amino-2,7-dimethyl-7H-pyrrolo[2,3-d]pyrimidin-5-yl)-3-methylphenyl)-2-hydroxy-2-(6-(trifluoromethyl)pyridin-2-yl)acetamide]: the IC50 lay in the range of 0.101 to 0.25 µM in assay [1] and 0.501 to 1 µM in assay [2].
For the molecule `Cc1cc(NC(=O)C(O)c2ccccc2)ccc1-c1cn(C)c2ncnc(N)c12` (stereo not drawn) [Example 5, N-(4-(4-amino-7-methyl-7H-pyrrolo[2,3-d]pyrimidin-5-yl)-3-methylphenyl)-2-hydroxy-2-phenylacetamide], the half-inhibitory concentration (IC50) is 0.001 to 0.025 µM in assay [1] and 0.026 to 0.05 µM in assay [2].
The like results for `CCc1cccc(C(O)C(=O)Nc2ccc(-c3cn(C)c4nc(C)nc(N)c34)c(F)c2)c1` (stereo not drawn) [Example 76, N-(4-(4-amino-2,7-dimethyl-7H-pyrrolo[2,3-d]pyrimidin-5-yl)-3-fluorophenyl)-2-(3-ethylphenyl)-2-hydroxyacetamide] were, in that order, 0.001 to 0.025 µM and 0.001 to 0.025 µM.
For `Cc1nc(N)c2c(-c3cnc(NC(=O)C(O)c4cccc(C(F)(F)F)c4)cc3C)cn(C)c2n1` (stereo not drawn) [Example 131, N-(5-(4-amino-2,7-dimethyl-7H-pyrrolo[2,3-d]pyrimidin-5-yl)-4-methylpyridin-2-yl)-2-hydroxy-2-(3-(trifluoromethyl)phenyl)acetamide], in that order: 0.026 to 0.05 µM and 0.251 to 0.5 µM.
Turning to `Cc1cc(NC(=O)C(O)c2cccc(F)c2)cc(F)c1-c1cn(C)c2ncnc(N)c12` (stereo not drawn) [Example 124, N-(4-(4-amino-7-methyl-7H-pyrrolo[2,3-d]pyrimidin-5-yl)-3-fluoro-5-methylphenyl)-2-(3-fluorophenyl)-2-hydroxyacetamide], the half-inhibitory concentration (IC50) lay in the range of 0.001 to 0.025 µM in assay [1] and 0.001 to 0.025 µM in assay [2] (Homo sapiens, HEK293, 2 h).
With `Cc1cc(NC(=O)C(O)c2cccc(F)c2)ccc1-c1cn(C)c2ncnc(N)c12` (stereo not drawn) [Example 11, N-(4-(4-amino-7-methyl-7H-pyrrolo[2,3-d]pyrimidin-5-yl)-3-methylphenyl)-2-(3-fluorophenyl)-2-hydroxyacetamide], the half-maximal inhibitory concentration (IC50) in assay [1] and in assay [2] was 0.001 to 0.025 µM each time.
Turning to `Cc1cc(NC(=O)Cc2cccc3ccccc23)ccc1-c1cn(C)c2ncnc(N)c12` [Example 153, N-(4-(4-amino-7-methyl-7H-pyrrolo[2,3-d]pyrimidin-5-yl)-3-methylphenyl)-2-(naphthalen-1-yl)acetamide], the concentration for half-maximal inhibition (IC50) lay within 0.001 to 0.025 µM in assay [1] and 0.026 to 0.05 µM in assay [2] (Homo sapiens, HEK293, 2 h).
Turning to `Cc1nc(N)c2c(-c3ccc(NC(=O)C(O)c4cccc(F)c4)cc3C(F)(F)F)cn(C)c2n1` (stereo not drawn) [Example 19, N-(4-(4-amino-2,7-dimethyl-7H-pyrrolo[2,3-d]pyrimidin-5-yl)-3-(trifluoromethyl)phenyl)-2-(3-fluorophenyl)-2-hydroxyacetamide], the IC50 fell in the range of 0.001 to 0.025 µM in assay [1] and 0.101 to 0.25 µM in assay [2].
Take `Cc1nc(N)c2c(-c3ccc(NC(=O)C(O)c4cccc5cnn(C)c45)cc3C)cn(C)c2n1` (single isomer, unassigned) [Example 64, N-(4-(4-amino-2,7-dimethyl-7H-pyrrolo[2,3-d]pyrimidin-5-yl)-3-methylphenyl)-2-hydroxy-2-(1-methyl-1H-indazol-7-yl)acetamide]: the IC50 in assay [1] is 0.251 to 0.5 µM; in assay [2] (Homo sapiens, HEK293, 2 h) it was 2 to 3 µM.
As to `Cc1cccc(C(O)C(=O)Nc2ccc(-c3cn(C)c4nc(C)nc(N)c34)c(F)c2)c1` (stereo not drawn) [Example 73, N-(4-(4-amino-2,7-dimethyl-7H-pyrrolo[2,3-d]pyrimidin-5-yl)-3-fluorophenyl)-2-hydroxy-2-(m-tolyl)acetamide], the values for the IC50 in assay [1] and in assay [2] were 0.026 to 0.05 µM and 0.501 to 1 µM, respectively.
For `Cc1cc(NC(=O)Nc2ccccc2)ccc1-c1cn(C)c2ncnc(N)c12` [Example 170, 1-(4-(4-amino-7-methyl-7H-pyrrolo[2,3-d]pyrimidin-5-yl)-3-methylphenyl)-3-phenylurea], the concentration for half-maximal inhibition (IC50) in assay [1] lay within 0.001 to 0.025 µM; in assay [2] (Homo sapiens, HEK293, 2 h), 0.101 to 0.25 µM.
For `Cc1cc(NC(=O)N(C)c2ccccc2)ccc1-c1cn(C)c2ncnc(N)c12` [Example 171, 3-(4-(4-amino-7-methyl-7H-pyrrolo[2,3-d]pyrimidin-5-yl)-3-methylphenyl)-1-methyl-1-phenylurea], in that order: 0.101 to 0.25 µM and 1 to 2 µM.

These data come from patent US20220356186A1, “PERK INHIBITING PYRROLOPYRIMIDINE COMPOUNDS” (HiberCell, Inc., priority 2019, published 2022).
